Test results reported in patent US20140072567A1, “Methods Of Treating And Preventing Glucose Toxicity” (Walter and Eliza Hall Institute of Medical Research, ACN …, priority 2008, published 2014).

Legend:
iNOS = assay: Western blotting for iNOS expression in islets; assay type: cell-based, mice; settings: islets cultured in high glucose (33.3 mM) in the presence of IFNγ
Procedure: (§1) FIG. 2: IL-1β or Fas are not required for glucose or ribose induced beta cell apoptosis. (A) 200 islets from wild-type, IL-1R^−/− and B6^lpr/lpr mice were cultured for 6 days in 5.6 mM low glucose medium (unt) or 33.3 mM D-glucose or for 4 days in 50 mM ribose. DNA fragmentation was measured by flow cytometry. (B) 100 wild-type islets were cultured for 7 days in 5.6 mM or 33.3 mM D-glucose with cytokines added in the last 4 days and iNOS expression, NO production and DNA fragmentation was measured. Representative Western blot for iNOS expression (β-actin used as loading control). (C) NO2 determination of culture supernatant (D) DNA fragmentation was measured by flow cytometry. (E) Wild-type islets were cultured in 50 mM ribose or cytokines for 2 days, 33.3 mM D-glucose for 4 days (solid lines) compared to islets cultured in 5.6 mM D-glucose (broken lines). Fas expression on β cells was analysed by FACS analysis. (F) Wild-type islets cultured for 7 days in 5.6 mM (−) or 33.3 mM (+) glucose with cytokines or FasL added in the last 4 days. The data represent the mean±S.E.M of three experiments. Islets were incubated for 4 days with cytokines and 33.3 mM glucose, transferred to microcentrifuge tubes and washed three times in PBS. […]

[1] = tested on: islets from wild-type mice; assay: Cytochrome c release from mitochondria (flow cytometry); assay type: cell-based
Procedure: FIG. 1: Wild-type islets cultured in high concentrations of glucose or ribose undergo DNA fragmentation and mitochondrial release of cytochrome C, both indicative of apoptosis, and have a reduced ability to secrete insulin. (A) 200 islets from wild-type C57BL/6 mice were either cultured in low glucose medium (5.6 mM) (unt) or cultured in high glucose media (33.3 mM) for 6 days or high ribose medium (50 mM) for 4 days and DNA fragmentation was measured. Representative flow cytometry profiles are shown i). Data represent islets from 13-17 individual mice per group ii). Statistical significance; *p<0.001 compared with unt (one-way ANOVA). (B) 100 islets from wild-type mice were cultured under conditions mentioned above for 4 and 3 days respectively and cytochrome C release was measured. Representative flow cytometry profiles are shown i). Data represent islets from 4 individual mice per group. ii) Statistical significance; *p<0.001 ** p<0.05 compared with unt (one-way ANOVA). (C) wild-type islets were cultured in high concentrations of ribose (50 mM) for 2 days and insulin release was measured after glucose stimulation. Statistical significance; *p<0.01 compared with unt (one-way ANOVA). […]

Fas = Fas expression on islet beta cells by flow cytometry; assay type: cell-based, mice; settings: high glucose (33.3 mM, 4 days) compared to untreated controls
Procedure: as §1, with “Islets cells” for “Islets”, “analysed” for “incubated”, “expression of Fas by flow cytometry as previously described (Thomas et al., 1999). Islets were dispersed into single cells as described above” for “4 days with cytokines”, “stained using standard procedures.” for “33.3 mM glucose, transferred to microcentrifuge tubes and washed three times in PBS.”

bim = assay: Real-time qRT-PCR of islets, bim; assay type: cell-based, mice; settings: for up-regulation of bim mRNA: islets exposed to high concentrations of glucose or ribose
Procedure: (§2) FIG. 7: Ribose induces expression of Puma and Bax in islets. Quantitative RT-PCR of wild-type islets cultured in control medium or medium containing 50 mM ribose, 33.3 mM glucose or 5 μM thapsigargin for 24 or 48 h. Relative RNA expression levels for (A) Puma (B) Bim and (C) Bax were calculated by normalizing to the signal for β-actin in each sample and comparison to islets cultured in control medium. Mean±SEM of 3-4 independent experiments is shown. Statistical significance *p<0.05, **p<0.01 compared with control (two-tailed paired t-test). RNA was prepared using the RNeasy Kit (Qiagen). First strand cDNA was prepared from 0.1-0.2 μg RNA using the High Capacity RNA-to-cDNA Master Mix (Applied Biosystems). Real-time PCR was performed using the ABI Prism 7900 (Applied Biosystems) and the Power SYBR Green PCR Master Mix (Applied Biosystems) in 15 μl reaction volumes. Data analyses were performed with the CT method using actin as an internal control. qRT-PCR was performed using the following forward and reverse primers (a kind gift from Drs DCS Huang and M Narita) (Table 1).

[2] = tested on: islets from wild type C57BL/6 mice; assay: DNA fragmentation assay (sub-diploid DNA, flow cytometry); assay type: cell-based; settings: for DNA fragmentation: wild-type islets
Procedure: Uniformly sized islets (excluding very large or necrotic islets) were handpicked into 3.5 cm Petri dishes containing 1.1 mL of complete CMRL. Islets were then cultured with the appropriate stimuli to cause DNA fragmentation. At the end of the culture period, non-attached cells and islets were transferred into polypropylene tubes and washed in PBS. Islets were then dispersed with trypsin (0.1 mg/mL bovine trypsin (Calbiochem) and 2 mmol/L EDTA in PBS) for 5 min at 37° C. Islets were mechanically dispersed using a pipette, washed in PBS, and allowed to recover in complete CMRL medium for 1 h at 37° C. in 5% CO2. Cells were then washed in PBS and resuspended in 250 μL of hypotonic buffer containing 50 mg/mL propidium iodide (Sigma-Aldrich), 0.1% sodium citrate, and 0.1% TritonX-100 which stains nuclear DNA. The cells were then analyzed on a FACSCalibur (Becton Dickinson, Franklin Lakes, N.J., USA) using the FL3 channel. Cells undergoing apoptosis were identified by their sub-diploid DNA content as previously described (Riccardi and Nicoletti, 2006).

puma = assay: Real-time qRT-PCR of islets, puma; assay type: cell-based, mice
Procedure: as §2

bax = assay: Real-time qRT-PCR of islets, bax; assay type: cell-based, mice
Procedure: as §2

wild type islets = assay: Glucose-stimulated insulin secretion assay; assay type: cell-based, mice; settings: wild type islets exposed to ribose (50 mM) for two days
Procedure: Insulin secretion assays were performed as previously described (Thomas et al., 2002). Two hundred islets were cultured in complete CMRL and ribose for 2 days, then washed three times in Krebs-Ringer bicarbonate buffer (KRB; 25 mmol/l HEPES, 115 mmol/l NaCl, 24 mmol/l NaHCO3, 5 mmol/l MgCl2, 2.5 mmol/l CaCl2, pH 7.4) with 3 mmol/l glucose and 0.1% BSA. Groups of 20 islets in quadruplicate were incubated for 30 min in 200 μl KRB containing 3 mmol/l glucose under 5% CO2/95% air with shaking at 37° C., followed by a second incubation in 200 μl KRB containing either 3 or 20 mmol/l glucose. Buffer was sampled for insulin after 30 min using a mouse insulin ELISA kit (Linco Research, Mo., USA).

bak = assay: Real-time qRT-PCR of islets, bak; assay type: cell-based, mice; settings: 5 μM thapsigargin, data not shown
Procedure: as §2

O=C[C@H](O)[C@@H](O)[C@H](O)[C@H](O)CO [D-glucose]
iNOS expression (iNOS): no iNOS expression | release of cytochrome c from the mitochondria ([1]; high glucose (33.3 mM), 4 days, compared to untreated islets): significant increase | Fas expression on islet cells (Fas): slight but insignificant rise | up-regulation of bim mRNA (bim): no up-regulation | DNA fragmentation ([2]; 33.3 mM D-glucose, 6 days, compared to low glucose media (5.6 mM)): modest but significant increase

O=C[C@H](O)[C@H](O)[C@H](O)CO [ribose, D-ribose]
increase in expression of puma (puma; 50 mM ribose, 48 h): 4 fold | increase in expression of bax (bax; 50 mM ribose, 48 h): 4 fold | insulin secretory function after glucose stimulation (wild type islets): significant loss | release of cytochrome c from the mitochondria ([1]; high ribose (50 mM), 3 days, compared to high glucose): more pronounced | up-regulation of bim mRNA (bim): no up-regulation | Bim expression (bim; ribose incubation (50 mM)): remained unchanged | DNA fragmentation ([2]; 50 mM ribose, 4-day period, compared to high concentrations of glucose): significantly more DNA fragmentation

C/C=C(/C)C(=O)O[C@H]1C(C)=C2[C@H]([C@@H]1OC(=O)CCCCCCC)[C@@](C)(OC(C)=O)C[C@H](OC(=O)CCC)[C@@]1(O)[C@H]2OC(=O)[C@@]1(C)O [thapsigargin, reference compound]
increase in expression of puma (puma; 5 μM thapsigargin, 24 or 48 h): 2-7 fold | increase in expression of bax (bax; 5 μM thapsigargin, 24 or 48 h): 2-7 fold | increase in expression of bak (bak): 2-7 fold | increase in expression of bim (bim; 5 μM thapsigargin): not

z-Val-Ala-Aspfluoromethylketone [z-VAD.fmk, reference compound]
inhibition of ribose-induced islet cell DNA fragmentation ([2]; pan-caspase inhibitor used at 100 μmol/L): significantly inhibited
